This passage reports inhibition and IC50 results from patent publication US7217730B2, “Method for the use of pyranoindole derivatives to treat infection with Hepatitis C virus” (Wyeth, priority 2002, dated 2007).

In the experiment the target is T1, NS5B from the BK strain (genotype 1b) (Hepatitis C virus genotype 1b, UniProt P26663).
T1 construct: NS5B from the BK strain (genotype 1b) is expressed in E. coli as a protein in which the 21 C-terminal amino acids are replaced; made in house; host or cells: E. coli
The experiment is described as follows: Hepatitis C polymerase inhibition, NS5B BK strain, 33P-GTP filter assay. The class given is biochemical. The settings on record: for inhibition at 20 µM: 20 μM compound, read-out: HCV pol % inh at 20 μM; for IC50: NS5B BK strain. The source says: The ability of the compounds of the present invention to inhibit Hepatitis C Polymerase was established by the following experimental procedure: • NS5B from the BK strain (genotype 1b) is expressed in E. coli as a protein in which the 21 C-terminal amino acids are replaced with a short linker and a hexahistidine tag ([…]). The purified protein is mixed with radioactive nucleotides and allowed to replicate a heteropolymeric RNA substrate, primed by an endogenous short hairpin, resulting in an approximately 760 nt product. The radioactive product is captured on a filter and quantitated after removal of the unincorporated nucleotides.
Reagents: • 10 mM uridine 5′-triphosphate (UTP) (Promega # p116B) • 10 mM adenine 5′-triphosphate (ATP) (Promega # p113B) • 10 mM cytidine 5′-triphosphate (CTP) (Promega # p114B) • 10 mM guanine 5′-triphosphate (GTP) (Promega # p115B) • Bovine Serum Albumin (BSA) 10 mg/ml NEB (100× at 10 mg/ml) #007-BSA • RNasein (Promega #N251X) 40 U/μl • A-[33P]-GTP (NEN-easytides NEG/606H 3000 Ci/mmol, 370 MBq/ml, 10 mCi/ml) • Falcon polypropylene 96 well plates (Becton Dickinson # 351190) • Millipore Multiscreen assasy system-96 well-filtration plate #MADE NOB 50 • Optiphase Supermix (Wallac) formulated by Fisher • Millipore Multiscreen liner for use in microbeta 1450-106 casette [(Wallac) Perkin Elmer #1450-433] • 1 M(N-[2-hydroxyethyl]piperazine-N′-[2-ethanesulfonic acid]) (HEPES), pH 7.3 • Amersham Pharmacia Biotec (US16924-500 ml) • 1 M MgCl2 (SIGMA #M1028) • Dithiothreitol (DTT) (solid) (SIGMA #D9779) • RNase free water (GIBCO-BRL #10977-023) • Dimethyl sulfoxide (Aldrich #27685-5) • Basilen Blue (Sigma, B5520) • 0.5M ethylenediaminetetraacetic acid (EDTA), pH 8 (GIBCO-BRL #15575-020) • Dibasic sodium phosphate (7-hydrate) (Na2HPO4.7H2O; Baker#3824-07) • Phosphoric acid (Baker, #0262.02)
Further reagent preparation: • 0.5 M Na Phosphate buffer. Per liter, weigh 134 gr Na2HPO4.7H2O, add water to 900 ml. Adjust pH to 7.0 with phosphoric acid. Top off with water to 1 L. • Dilute nucleotides 1:1000 to 10 μM (GTP and CTP) or 1:100 to 100 μM (ATP and UTP) into RNase free water.
Procedure: • (1) Compounds 10 μl at 10 μg/ml in 15% dimethylsulfoxide (DMSO)
When starting from 100 μg/ml compound stock in […]: • Dispense 5 μl 30% DMSO per well • Dispense 5 μl compound (100 μg/ml) per well.
When starting from 50 μg/ml compound stock in 15% DMSO: • Add 10 μl compound per well. • (2) Enzyme Mix:
Add 20 μl enzyme mix into each well of the assay plate. Incubate compound and enzyme at room temperature for 15 minutes • (3) Template mix—prepare ahead
Spin down a tube of RNA (5 μg/tube stored in 75% ethanol and 0.3 M sodium acetate) in a microcentrifuge for 20 minutes at 4° C. One tube is enough for 1–1.5 plates. Remove as much ethanol from the tube as possible by inverting the tube. Be gentle, pellet RNA may not adhere to the tube. Vacuum dry the RNA. Resuspend the RNA by adding 1 ml of DEPC water, close the cap of the tube tightly. To dissolve RNA, incubate RNA solution on ice for ˜60 minutes and gently vortex. Spin briefly to ensure all RNA solution is down to the bottom of the tube before opening cap. Gently transfer RNA solution into a 5 ml or larger tube. Add another 3 ml of DEPC water (total 4 ml of volume).
Add the following volumes of reagents
Add 20 μl template mix per reaction (i.e. 20 ng of pOF per reaction or ˜3 nM) • (4) Incubate reaction at room temperature (22–25° C.) for 2 hours. • (5) Stop reaction by adding 50 μl of 170 mM EDTA. • Final concentration of EDTA is 85 mM. • (6) Prewet filters of Millipore multiscreen assay plate by adding 200 μl of 0.5 M sodium phosphate buffer, pH 7.0 into each well. Let stand at room temperature for 2–3 minutes. • (7) Place the multiscreen filter plate onto a Millipore Manifold and turn on vacuum to allow buffer to flow through. Turn off vacuum. Transfer 80 μl of the reaction product into each well of the filter plate. Let stand for 2–3 minutes. […]

Setting [1] is: Table 1A, read-out: HCV pol BK IC50.

For orientation: IC50 means the midpoint of a concentration-inhibition curve.

Molecules are shown by their SMILES. Read-outs that look alike come from different tables or passages of the source.

T1 sequence (P26663 2420-2989): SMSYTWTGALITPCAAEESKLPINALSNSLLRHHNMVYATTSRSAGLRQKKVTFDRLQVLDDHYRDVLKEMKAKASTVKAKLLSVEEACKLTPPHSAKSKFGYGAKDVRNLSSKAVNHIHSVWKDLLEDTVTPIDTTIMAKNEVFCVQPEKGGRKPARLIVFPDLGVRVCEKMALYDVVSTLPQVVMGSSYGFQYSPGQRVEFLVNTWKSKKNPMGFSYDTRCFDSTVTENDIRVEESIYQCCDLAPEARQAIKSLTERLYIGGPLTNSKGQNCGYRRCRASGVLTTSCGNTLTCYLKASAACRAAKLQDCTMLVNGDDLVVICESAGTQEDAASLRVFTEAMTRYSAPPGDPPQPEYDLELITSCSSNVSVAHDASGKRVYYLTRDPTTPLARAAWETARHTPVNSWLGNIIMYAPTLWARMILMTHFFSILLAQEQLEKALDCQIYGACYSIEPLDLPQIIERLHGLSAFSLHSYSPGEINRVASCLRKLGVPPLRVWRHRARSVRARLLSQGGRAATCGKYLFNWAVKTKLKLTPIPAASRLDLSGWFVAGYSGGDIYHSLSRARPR

For `CC1(CC(=O)O)OCCc2c1[nH]c1c(Cl)cccc21` (stereo not drawn) [Example 72, (8-chloro-1-methyl-1,3,4,9-tetrahydropyrano[3,4-b]indol-1-yl)acetic acid], the inhibition at 20 µM (Table 1A) is 45%. Moreover, the 50% inhibitory concentration (IC50) under setting [1] was greater than 20 µM. Turning to `CCC1(CC(=O)O)OCCc2c1[nH]c1c(Cl)cc(C)c(C#N)c21` (stereo not drawn) [Example 182, (8-chloro-5-cyano-1-ethyl-6-methyl-1,3,4,9-tetrahydropyrano[3,4-b]indol-1-yl)acetic acid], the inhibition at 20 µM (Table 1A) was 55%. Further, the IC50 under setting [1] was greater than 5 µM. As to `O=C(O)CC1(c2ccccc2)OCCc2c1[nH]c1cccc(Cl)c21` (stereo not drawn) [Example 17, (5-chloro-1-phenyl-1,3,4,9-tetrahydropyrano[3,4-b]indol-1-yl)acetic acid], where the note is “Table 1A”, the inhibition at 20 µM is less than 5%. In addition, the IC50 under setting [1] is greater than 20 µM.

Turning to `C/C=C/CCC1(CC(=O)O)OCCc2c1[nH]c1c(C)ccc(F)c21` (stereo not drawn) [Example 145, {5-fluoro-8-methyl-1-[(3E)-pent-3-enyl]-1,3,4,9-tetrahydropyrano[3,4-b]indol-1-yl}acetic acid], the inhibition at 20 µM (Table 1A) turned out to be 20%. The IC50 under setting [1] is greater than 20 µM. On to `O=C(O)CC1(c2ccoc2)OCCc2c1[nH]c1c(Cl)ccc(C(F)(F)F)c21` (stereo not drawn) [Example 136, [8-chloro-1-(3-furyl)-5-(trifluoromethyl)-1,3,4,9-tetrahydropyrano[3,4-b]indol-1-yl]acetic acid], for which the inhibition at 20 µM (Table 1A) was 81%. The IC50 under setting [1] worked out at 4.3 µM. With `CCC[C@@]1(CC(=O)O)OCCc2c1[nH]c1c(F)ccc(C#N)c21` [Example 6, [(S)-5-cyano-8-fluoro-1-propyl-1,3,4,9-tetrahydropyrano[3,4-b]indol-1-yl]acetic acid], the IC50 under setting [1] was 5.7 µM.

As for `COCC1(CC(=O)O)OCCc2c1[nH]c1c(Cl)ccc(C(F)(F)F)c21` (stereo not drawn) [Example 264, (8-chloro-1-methoxymethyl-5-trifluoromethyl-1,3,4,9-tetrahydropyrano[3,4-b]indol-1-yl)acetic acid], the IC50 (Table 1B, read-out: BK IC50) is greater than 30 µM.

With `CCCC1(CC(=O)O)OCCc2c1[nH]c1cccc(-c3ccc(-c4ccccc4)cc3)c21` (stereo not drawn) [Example 39, [5-(1,1′-biphenyl-4-yl)-1-propyl-1,3,4,9-tetrahydropyrano[3,4-b]indol-1-yl]acetic acid], the inhibition at 20 µM (Table 1A) came to 7%. In addition, the IC50 under setting [1] was greater than 20 µM.

In the case of `CCCC1(CC(=O)O)OCCc2c1[nH]c1c(F)ccc(-c3ccc(C)cc3)c21` (stereo not drawn) [Example 148, [8-fluoro-5-(4-methylphenyl)-1-propyl-1,3,4,9-tetrahydropyrano[3,4-b]indol-1-yl]acetic acid], the inhibition at 20 µM (Table 1A) worked out at 47%. Further, the IC50 under setting [1] is greater than 20 µM. On to `CCC[C@@]1(CC(=O)O)OCCc2c1[nH]c1c(Cl)ccc(Cl)c21` [Example 9, [(S)-5,8-dichloro-1-propyl-1,3,4,9-tetrahydropyrano[3,4-b]indol-1-yl]acetic acid], for which the IC50 under setting [1] came out at 1.1 µM. Turning to `CCCCC1(CC(=O)O)OCCc2c1[nH]c1cccc(Br)c21` (stereo not drawn) [Example 68, (5-bromo-1-butyl-1,3,4,9-tetrahydropyrano[3,4-b]indol-1-yl)acetic acid], the inhibition at 20 µM (Table 1A) came out at 61%. For the same compound, under setting [1], the IC50 is 10.3 µM. On the same counts, the results for `O=C(O)CC1(c2ccoc2)OCCc2c1[nH]c1cccc(Br)c21` (stereo not drawn) [Example 25, [5-bromo-1-(3-furyl)-1,3,4,9-tetrahydropyrano[3,4-b]indol-1-yl]acetic acid] are 33% and greater than 20 µM. The like results for `CCC1(CC(=O)O)OCCc2c1[nH]c1c(F)cc(C)c(C#N)c21` (stereo not drawn) [Example 220, (5-cyano-1-ethyl-8-fluoro-6-methyl-1,3,4,9-tetrahydropyrano[3,4-b]indol-1-yl)acetic acid] were, in that order, 43% and greater than 5 µM. With `CCCC1(CC(=O)O)OCCc2c1[nH]c1cccc(-c3ccc(Cl)cc3)c21` (stereo not drawn) [Example 34, (5-(4-chlorophenyl)-1-propyl-1,3,4,9-tetrahydropyrano[3,4-b]indol-1-yl]acetic acid], under “Table 1A”, the inhibition at 20 µM is 5%. Further, the IC50 under setting [1] was greater than 20 µM. On the same counts, the results for `C/C=C/CCC1(CC(=O)O)OCCc2c1[nH]c1c(C(F)(F)F)cccc21` (stereo not drawn) [Example 120, [1-[(3E)-pent-3-enyl]-8-(trifluoromethyl)-1,3,4,9-tetrahydropyrano[3,4-b]indol-1-yl]acetic acid] are 33% and greater than 20 µM.

As to `CC(C)C1(CC(=O)O)OCCc2c1[nH]c1cccc(Br)c21` (stereo not drawn) [Example 23, (5-bromo-1-isopropyl-1,3,4,9-tetrahydropyrano[3,4-b]indol-1-yl)acetic acid], the inhibition at 20 µM (Table 1A) is 12%. The IC50 under setting [1] is greater than 20 µM. On the same counts, the results for `CCC1(CC(=O)O)OCCc2c1[nH]c1cccc(Cl)c21` (stereo not drawn) [Example 13, (5-Chloro-1-ethyl-1,3,4,9-tetrahydropyrano[3,4-b]indol-1-yl)acetic acid] are 23% and greater than 20 µM.

In the case of `CCCC1(CC(=O)O)OCCc2c1n(Cc1ccccc1)c1c(Cl)ccc(Cl)c21` (stereo not drawn) [Example 234, (9-benzyl-5,8-dichloro-1-propyl-1,3,4,9-tetrahydropyrano[3,4-b]indol-1-yl)acetic acid], under setting [1], the IC50 worked out at 13 µM. `CC(C)C1(CC(=O)O)OCCc2c1[nH]c1cccc(C#N)c21` (stereo not drawn) [Example 59, (5-cyano-1-isopropyl-1,3,4,9-tetrahydropyrano[3,4-b]indol-1-yl)acetic acid]: the inhibition at 20 µM (Table 1A) was 23%. Under setting [1], the IC50 was greater than 20 µM. The like results for `C/C=C/CCC1(CC(=O)O)OCCc2c1[nH]c1c(F)ccc(F)c21` (stereo not drawn) [Example 127, {5,8-difluoro-1-[(3E)-pent-3-enyl]-1,3,4,9-tetrahydropyrano[3,4-b]indol-1-yl}acetic acid] were, in that order, 24% and greater than 20 µM.

Take `CC1(CC(=O)O)OCCc2c1[nH]c1c(F)ccc(F)c21` (stereo not drawn) [Example 122, (5,8-difluoro-1-methyl-1,3,4,9-tetrahydropyrano[3,4-b]indol-1-yl)acetic acid]: the inhibition at 20 µM (Table 1A) is 5%. In addition, the IC50 under setting [1] is greater than 20 µM. Turning to `O=C(O)CC1(c2ccccc2)OCCc2c1[nH]c1c(Cl)cccc21` (stereo not drawn) [Example 78, (8-chloro-1-phenyl-1,3,4,9-tetrahydropyrano[3,4-b]indol-1-yl)acetic acid], the inhibition at 20 µM (Table 1A) was 26%. Under setting [1], the IC50 was greater than 20 µM. The like results for `CCCC1(CC(=O)O)OCCc2c1[nH]c1c(F)ccc(Cl)c21` (stereo not drawn) [Example 214, (5-chloro-8-fluoro-1-propyl-1,3,4,9-tetrahydropyrano[3,4-b]indol-1-yl)acetic acid] were, in that order, 82% and 0.74 µM.
